Measured values from paper PMC8921065, “Combination of terbium-161 with somatostatin receptor antagonists—a potential paradigm shift for the treatment of neuroendocrine neoplasms” (European Journal of Nuclear Medicine and Molecular Imaging, 2021).
Where “and” joins values, the source holds several entries; their conditions need not be identical. Equal entries are not always repeated. Where two headings read alike, the source gives them in different places. Where a SMILES comes first, the peptide text is derived from it. Bridges are numbered along the chain shown (N, C = ends). [ ]: non-standard residue; d: D form. The star is where a group is joined. DOTA = O=C(O)CN1CCN(CC(=O)O)CCN(CC(=O)*)CCN(CC(=O)O)CC1; dPhe(4-NHCONH2) = NC(=O)Nc1ccc(C[C@@H](N)C(=O)O)cc1; Phe(4-Cl) = N[C@@H](Cc1ccc(Cl)cc1)C(=O)O

Assays:
[1] = tested on: AR42J tumor-bearing mice; assay: Therapy study, therapeutic efficacy; settings: for tumor growth delay: day 0 and day 7; for Time frame of euthanasia: end of study day 49
Protocol: The therapy study was initiated with mice randomly assigned to five groups (n = 6) when the AR42J tumors reached an average volume of 99 ± 16 mm^3. […] The endpoint criteria were defined according to a scoring system which required euthanasia of mice with a score ≥ 3 (Supplementary Material).
For the subsequent phase, in which the tumors started to regrow, the doubling time of the tumor volume was calculated based on the fitted exponential tumor growth curve. The average ± SD of tumor growth delay and of the doubling time of the tumor volume in single mice, respectively, were compared among groups with a one-way ANOVA with Tukey’s multiple comparisons post-test. The survival times of mice were presented by Kaplan–Meier curves and analyzed using a log-rank test (Mantel-Cox).
Definition of tumor volume (V) and relative tumor volume (RTV): The tumor dimension was determined by measuring the longest tumor axis (L) and its perpendicular axis (W) with a digital caliper. The tumor volume (TV) was calculated according to the equation [V = 0.5 × (L × W^2)]. The relative tumor volume (RTV) was defined as [TVx/TV0], where TVx is the tumor volume in mm^3 at a given Day x and TV0 the tumor volume in mm^3 at Day 0.
Scoring system: Endpoint criteria were defined using a scoring system which required euthanasia of mice with a score ≥3. Every second day, the following criteria were assessed in the mice, assigning a score from 0–3 for each criterion: (i) appearance (general status, skin color, etc.), (ii) behavior (vitality, sociality, crouching etc.), (iii) body weight (stable, loss >5 ≤10%, loss >10 <15%, loss ≥ 15% compared to initial body weight), (iv) tumor size (<800 mm^3, ≥800 and <900 mm^3, ≥900 and <1000 mm^3, ≥1000 mm^3), (v) tumor ulceration. A score ≥3 was for example due to: (i) appearance of wrinkled, translucent skin, (ii) mouse in crouching position and/or apathetic, (iii) a body weight loss of ≥15% of initial body weight, (iv) a tumor volume of ≥1000 mm^3, (iii/iv) a combination of a tumor size of ≥800 mm^3 and body weight loss of ≥10% and/or (v) ulceration of the tumor.

[2] = Early side effects: blood plasma chemistry; assay type: in vivo, mice; settings: endpoint of the therapy
[3] = Early side effects: relative body weight, organ masses and mass ratios; assay type: in vivo, mice; settings: at euthanasia
From the text: At the same time, relevant organs and tissues were collected, and the masses were put into relation to the brain mass of the respective mouse in order to allow the comparison of organ-to-brain and organ-to-body weight ratios among the single treatment groups (Supplementary Material).
Definition of relative body weight (RBW): The RBW was defined as [BWx/ BW0], where BWx is the body weight in gram at a given Day x and BW0 the body weight in gram at Day 0.

[4] = tested on: AR42J tumor-bearing mice; settings: 2 h p.i., 1.0 nmol/mouse, ref Borgna et al., 2021 [11], cited from earlier work
[5] = in vivo; settings: mouse, iv, total radioactivity
[6] = tested on: metastatic NENs; settings: human, in vivo; cited from earlier work

Row | Compound | tumor growth delay ([1]; 2 × 10 MBq, 0.2 nmol) | Time frame of euthanasia ([1]; 2 × 10 MBq, 0.2 nmol) | Median survival ([1]; mouse, in vivo) | ALB [2] | ALP [2] | BUN [2] | CRE [2] | TBIL [2] | Organ mass Brain [3] | Organ mass Kidneys [3] | Organ mass Liver [3] | Organ mass Spleen [3] | AR42J tumor uptake [4] | Adrenals uptake [4] | Blood uptake [4] | Femur uptake [4] | Heart uptake [4] | Intestines uptake [4] | Kidneys uptake [4] | Liver uptake [4] | also measured
1 | C[C@@H](O)[C@@H]1NC(=O)[C@H](CCCCN)NC(=O)[C@@H](Cc2c[nH]c3ccccc23)NC(=O)[C@H](Cc2ccc(O)cc2)NC(=O)[C@@H](NC(=O)[C@@H](Cc2ccccc2)NC(=O)CN2CCN(CC(=O)O)CCN(CC(=O)O)CCN(CC(=O)O)CC2)CSSC[C@@H](C(=O)N[C@H](CO)[C@@H](C)O)NC1=O [[^161Tb]Tb-DOTATOC] [metal not drawn] | 9.0 ± 5.5 days | 20 to 26 days | 21 days | 23 ± 2 g/L | 76 ± 21 U/L | 5.8 ± 1.0 mmol/L | <18 (n=6) µmol/L | < 3 µmol/L and 4 ± 1 µmol/L | 440 ± 23 mg | 352 ± 27 mg | 1195 ± 57 mg | 86 ± 19 mg | 8.2 ± 0.2 % IA/g | 0.25 ± 0.06 % IA/g | ≤0.10 % IA/g | ≤0.10 % IA/g | ≤0.10 % IA/g | 0.21 ± 0.13 % IA/g | 9.9 ± 1.3 % IA/g | 0.17 ± 0.01 % IA/g | Lung uptake [4]: 0.27 ± 0.03 % IA/g; Muscle uptake [4]: ≤0.10 % IA/g; Pancreas uptake [4]: 0.71 ± 0.07 % IA/g; Spleen uptake [4]: 0.11 ± 0.02 % IA/g; Stomach uptake [4]: 0.74 ± 0.38 % IA/g
2 | C[C@@H](O)[C@@H]1NC(=O)[C@H](CCCCN)NC(=O)[C@@H](Cc2c[nH]c3ccccc23)NC(=O)[C@H](Cc2ccc(O)cc2)NC(=O)[C@@H](NC(=O)[C@@H](Cc2ccccc2)NC(=O)CN2CCN(CC(=O)O)CCN(CC(=O)O)CCN(CC(=O)O)CC2)CSSC[C@@H](C(=O)N[C@H](CO)[C@@H](C)O)NC1=O [[^177Lu]Lu-DOTATOC] [metal not drawn] | 6.0 ± 4.4 days and 6 ± 4 days | 12 to 22 days | 19.5 days | 24 ± 5 g/L | 77 ± 8 U/L | 6.3 ± 0.9 mmol/L | <18 (n=5) µmol/L | < 3 µmol/L and 4 ± 1 µmol/L | 453 ± 31 mg | 342 ± 23 mg | 1121 ± 123 mg | 90 ± 17 mg | 8.9 ± 1.5 % IA/g | 0.28 ± 0.08 % IA/g | ≤0.10 % IA/g | ≤0.10 % IA/g | ≤0.10 % IA/g | 0.20 ± 0.05 % IA/g | 11 ± 1 % IA/g | 0.26 ± 0.07 % IA/g | Lung uptake [4]: 0.37 ± 0.06 % IA/g; Muscle uptake [4]: ≤0.10 % IA/g; Pancreas uptake [4]: 0.80 ± 0.13 % IA/g; Spleen uptake [4]: 0.15 ± 0.03 % IA/g; Stomach uptake [4]: 0.65 ± 0.11 % IA/g
3 | C[C@@H](O)[C@@H]1NC(=O)[C@H](CCCCN)NC(=O)[C@@H](Cc2c[nH]c3ccccc23)NC(=O)[C@H](Cc2ccc(O)cc2)NC(=O)[C@@H](NC(=O)[C@@H](Cc2ccccc2)NC(=O)CN2CCN(CC(=O)O)CCN(CC(=O)O)CCN(CC(=O)O)CC2)CSSC[C@@H](C(=O)N[C@H](CO)[C@@H](C)O)NC1=O [DOTATOC, DOTA-[Tyr^3]-octreotide] |  |  |  |  |  |  |  |  |  |  |  |  |  |  |  |  |  |  |  |  | tissue uptake at 2 h ([5]; AR42J tumor, 0.04 nmol/mouse): ~17 %ID/g; tissue uptake at 2 h ([5]; AR42J tumor, 0.2 nmol/mouse): ~15 %ID/g; tissue uptake at 2 h ([5]; liver): ~0.2 %ID/g; AR42J tumor uptake ([4]; listed as [^161Tb]Tb-/[^177Lu]Lu-DOTATOC): ~ 8 % IA/g
4 | C[C@@H](O)[C@@H]1NC(=O)[C@H](CCCCN)NC(=O)[C@@H](Cc2ccc(NC(N)=O)cc2)NC(=O)[C@H](Cc2ccc(O)cc2)NC(=O)[C@H](NC(=O)[C@H](Cc2ccc(Cl)cc2)NC(=O)CN2CCN(CC(=O)O)CCN(CC(=O)O)CCN(CC(=O)O)CC2)CSSC[C@@H](C(=O)N[C@H](Cc2ccc(O)cc2)C(N)=O)NC1=O [DOTA-LM3] |  |  |  |  |  |  |  |  |  |  |  |  |  |  |  |  |  |  |  |  | AR42J tumor uptake ([4]; listed as [^161Tb]Tb/[^177Lu]Lu-DOTA-LM3): ~ 18 % IA/g
5 | C[C@@H](O)[C@@H]1NC(=O)[C@H](CCCCN)NC(=O)[C@@H](Cc2ccc(NC(N)=O)cc2)NC(=O)[C@H](Cc2ccc(O)cc2)NC(=O)[C@H](NC(=O)[C@H](Cc2ccc(Cl)cc2)NC(=O)CN2CCN(CC(=O)O)CCN(CC(=O)O)CCN(CC(=O)O)CC2)CSSC[C@@H](C(=O)N[C@H](Cc2ccc(O)cc2)C(N)=O)NC1=O [[^177Lu]Lu-DOTA-LM3] [metal not drawn] ({DOTA}-[Phe(4-Cl)][dC]Y[dPhe(4-NHCONH2)]KTC[dY]-NH2; disulfide 2-7 (inferred); C-terminus assumed) | 35 ± 7 days |  | 48.5 days | 23 ± 1 g/L | 66 ± 5 U/L | 8.2 ± 1.9 mmol/L and 8.2 ± 1.8 mmol/L | < 18 µmol/L and 19 µmol/L | < 3 µmol/L and 4 ± 1 µmol/L | 471 ± 30 mg | 336 ± 13 mg | 1254 ± 106 mg | 92 ± 17 mg |  |  |  |  |  |  |  |  | mice with exponential tumor regrowth ([1]; after the growth delay): 5 out of 6; mice surviving until the end of the study ([1]; mouse, in vivo): three out of six mice; doubling time of the tumor volume ([1]; regrowth phase, 2 × 10 MBq, 0.2 nmol): 3.8 ± 1.1 days; tolerability in patients [6]: well tolerated; tumor doses compared to [177Lu]Lu-DOTATOC [6]: higher tumor doses
